Data as given in patent US20150064221A1, “COMPOUNDS HAVING IMMUNOMUDULATOR ACTIVITY” (priority 2012, published 2015).
Entries after “also recorded” stand apart in the source; their conditions may differ. Read-outs that look alike come from different tables or passages of the source.

Columns and labels:
[1] = Placebo-controlled ascending single-dose study in healthy subjects (CAT001); format: in vivo, human; conditions: for Cmax / half-life / AUC / Tmax / AUC(0-t): human, in vivo, oral; for AUC(0-t): read-out: AUC (0-24)
Method: FIG. 21. […] Subjects were administered from 1 mg to 800 mg of VGX1027.
A placebo-controlled, ascending single-dose study was performed to evaluate the safety and pharmacokinetics of VGX-1027 in healthy human subjects. Study was performed upon 7 groups of subjects: group 1: 1 mg of VGX-1027 after fasting; group 2: 10 mg of VGX-1027 after fasting; group 3: 100 mg of VGX-1027 after fasting; group 4: 200 mg of VGX-1027 after fasting; group 5: 400 mg of VGX-1027 after fasting; group 6: 800 mg of VGX-1027 after fasting; and group 7: 100 mg of VGX-1027 after fasting, and after fed.

[2] = system: Peritoneal macrophages (PM); assay: In vitro cytokine synthesis by peritoneal macrophages; format: cell-based, mice
Description: Peritoneal macrophages (PM) and splenic mononuclear cells (SMNC) were isolated from normal mice, cultured in nutrient medium and stimulated with LPS and/or ConA in the absence or presence of VGX-1027. […] VGX-1027 had no effect on MIF expression in either cell type, on proliferation of SMNC, and on IL-10 and Interferon (IFN) γ production by SMNC.

[3] = system: various asynchronously growing cell lines (HeLa, Jurkat, RD, PBMCs, U937); assay: Cell viability (MTT assay, P1/Annexin V staining); format: cell-based; parameters: viability: dose or concentration left out as unconfirmed
Method: (§1) (A) Cell viability was measured via the MTT assay after 48 hours of treatment. (B) TNF-α levels were measured 48 hours post LPS (5 μg/ml) stimulation. (C) CD4 T cells were stimulated with either ConA (10 μg/ml) or anti-CD3/CD28 beads (10 μg/ml), and proliferation was measured via 3H-thymidine incorporation.
VGX-1027 was tested for whether its effects were cell-type-specific.

[4] = system: U937s, RAWs, primary monocytes, PBMCs, Jurkats, undifferentiated CD4 T cells, 293Ts, RD cells; assay: LPS-induced TNF-α production in different cell types; format: cell-based
Method: as §1
Next, the production of TNF-α was measured following LPS stimulation in these different cell types. […] VGX-1027-induced effects were not observed.

[5] = system: undifferentiated CD4 T cells; assay: Proliferation of undifferentiated CD4 T cells; format: cell-based
Method: as §1

[6] = system: In vitro-derived human DCs; assay: LPS-induced cytokine production of dendritic cells; format: cell-based; conditions: LPS 5 μg/ml, 10 mM, 72 hours
Method: In vitro-derived human DCs were treated with LPS (5 μg/ml), with or without VGX-1027 (10 mM) for 72 hours. Concentrations of the cytokines in the media were measured via ELISA.

[7] = system: Purified CD4 T cells; assay: Th17 T cell development from purified CD4 T cells; format: cell-based; conditions: 10 mM
Method: Purified CD4 T cells (CD3^+ CD4^+ CD45RA^+ CD25^− HLA−DR^−) were incubated with 10 μg/ml of IL-2, 10 ng/mL of IL-1β, 10 ng/ml of IL-23, 1 ug/ml of anti-IL-4, 1 ug/mL of anti-IFNγ and anti-CD3/CD28 activation beads at a ratio of 1 bead per cell plus TGF-β (1 ng/mL). On day 6, the cells were incubated in the presence of 50 ng/ml of PMA and 500 ng/ml of ionomycin for 5 hours. The cells were analyzed for intracellular staining of IL-17A and IFNγ. (A) FACS analysis of CD4+ and IL-17+ cells with the percentage shown in the upper right quadrant. (B) Mean Fluorescent Intensity (MFI) of IL-17+ T cells. (C) Concentration of IL-17 in the media. VGX-1027 concentration was 10 mM.
Although inhibition of Th17-promoting cytokine production from DCs is likely to contribute to the decrease of Th17 T cell development, the potential limitation with this mechanism is that other cells may be compensating for the production of Th17-promoting cytokines. Therefore, the direct effect of VGX-1027 was tested on the differentiation of naïve CD4 T cells into Th17 T cells. In vitro generation of Th17 T cells requires TGF-β, IL-1β, IL-6, and either IL-21 or IL-23. Th17 T cells was assessed with purified CD4 T cells (CD3+ CD4+ CD45RA+ CD25− HLA−DR−) with or without VGX-1027.

[8] = 1 mg, single dose 1 mg, fasted, geometric mean
[9] = 10 mg, single dose 10 mg, fasted, geometric mean
[10] = 100 mg, Fasted vs Fed: 100 mg fasted, geometric mean
[11] = 100 mg, Fasted vs Fed: 100 mg fed, geometric mean
[12] = 100 mg, single dose 100 mg, fasted, geometric mean
[13] = 200 mg, single dose 200 mg, fasted, geometric mean
[14] = 400 mg, single dose 400 mg, fasted, geometric mean
[15] = 800 mg, single dose 800 mg, fasted, geometric mean

For `O=C(O)CC1CC(c2ccccc2)=NO1` (stereo not drawn) [VGX-1027, 3-phenyl-4,5-dihydro-5-isoxazoleacetic acid], the “Grade 3 or 4 AEs” value ([1]; human studies) was “No Grade 3 or 4 AEs were reported”, the SAEs ([1]; human studies) was “no SAEs were reported” and the Cmax [1, 8] was 50 ng/mL. For the same compound, the half-life [1, 8] was 7.2 h, the AUC ([1]; 1 mg, single dose 1 mg, fasted, geometric mean, read-out: AUC) was 460 ng·h/mL and the Tmax ([1]; 1 mg, single dose 1 mg, fasted, median) was 1 h. The Cmax [1, 9] was 1100 ng/mL, the half-life [1, 9] was 4.9 h and the AUC ([1]; 10 mg, single dose 10 mg, fasted, geometric mean, read-out: AUC) was 4430 ng·h/mL. For the same compound, the Tmax ([1]; 10 mg, single dose 10 mg, fasted, median) was 0.5 h, the Cmax [1, 10] was 6500 ng/mL and the half-life [1, 10] was 5.9 h. The AUC ([1]; 100 mg, Fasted vs Fed: 100 mg fasted, geometric mean, read-out: AUC) was 37800 ng·h/mL, the Tmax ([1]; 100 mg, Fasted vs Fed: 100 mg fasted, median) was 1.25 h and the Cmax [1, 11] was 4600 ng/mL. The half-life [1, 11] was 6.3 h, the AUC ([1]; 100 mg, Fasted vs Fed: 100 mg fed, geometric mean, read-out: AUC) was 55700 ng·h/mL and the Tmax ([1]; 100 mg, Fasted vs Fed: 100 mg fed, median) was 3.5 h. For the same compound, the Tmax ([1]; 100 mg, Single Dose (CAT001) 100 mg) was 1.8 h, the Cmax ([1]; 100 mg, Single Dose (CAT001) 100 mg, Geo Mean) was 9070 ng/mL and the Cmax [1, 12] was 9100 ng/mL. The half-life [1, 12] was 8.8 h, the AUC ([1]; 100 mg, single dose 100 mg, fasted, geometric mean, read-out: AUC) was 74600 ng·h/mL and the Tmax ([1]; 100 mg, single dose 100 mg, fasted, median) was 1.75 h. It also gave a Tmax ([1]; 200 mg, Single Dose (CAT001) 200 mg) of 1.5 h, a Cmax ([1]; 200 mg, Single Dose (CAT001) 200 mg, Geo Mean) of 15700 ng/mL and an AUC ([1]; 200 mg, Single Dose (CAT001) 200 mg, Geo Mean, read-out: AUC (AUC to 12 hours)) of 78500 ng·h/mL. It also gave a Cmax [1, 13] of 15700 ng/mL, a half-life [1, 13] of 7.7 h and an AUC ([1]; 200 mg, single dose 200 mg, fasted, geometric mean, read-out: AUC) of 111000 ng·h/mL. For the same compound, the Tmax ([1]; 200 mg, single dose 200 mg, fasted, median) was 1.5 h, the Cmax [1, 14] was 23800 ng/mL and the half-life [1, 14] was 6.7 h. For the same compound, the AUC ([1]; 400 mg, single dose 400 mg, fasted, geometric mean, read-out: AUC) was 155000 ng·h/mL, the Tmax ([1]; 400 mg, single dose 400 mg, fasted, median) was 1.25 h and the Cmax [1, 15] was 43200 ng/mL. For the same compound, the half-life [1, 15] was 7.9 h, the AUC ([1]; 800 mg, single dose 800 mg, fasted, geometric mean, read-out: AUC) was 330000 ng·h/mL and the Tmax ([1]; 800 mg, single dose 800 mg, fasted, median) was 2 h. The AUC(0-t) ([1]; Single Dose (CAT001) 100 mg, Geo Mean) was 66800 ng·h/mL, the AUC(0-t) ([1]; Single Dose (CAT001) 200 mg, Geo Mean) was 98400 ng·h/mL and the tolerability in humans ([1]; oral pill) was “safe and well-tolerated”. For the same compound, the dosing toxicities ([1]; up to 800 mg QD single dose) was “No dosing toxicities were observed”, the “IL-1 β production” value [2] was “inhibited” and the IL-10 production [2] was “inhibited”. The MIF expression [2] was “no effect”, the TNF-α production ([2]; LPS and/or ConA stimulated) was “markedly inhibited” and the viability ([3]; 48 hours, MTT) was “Greater than 80%”. The “toxicity to cell lines” value ([3]; MTT assay and P1/Annexin V staining, up to 100 mM) was “did not cause toxicity; also recorded: not toxic”, the TNF-α production ([4]; 293Ts) was “did not affect” and the TNF-α production ([4]; Jurkats) was “did not affect”. For the same compound, the “LPS-induced TNF-α production” value ([4]; PBMCs) was “inhibited”, the “LPS-induced TNF-α production” value ([4]; RAWs) was “inhibited” and the TNF-α production ([4]; RD cells) was “did not affect”. For the same compound, the “LPS-induced TNF-α production” value ([4]; U937s) was “inhibited”, the “LPS-induced TNF-α production” value ([4]; primary monocytes) was “inhibited” and the TNF-α production ([4]; undifferentiated CD4 T cells) was “did not affect”. For the same compound, the proliferation ([5]; CD3/CD28 stimulation) was “affected neither”, the INF-γ production ([5]; ConA stimulation) was “affected neither” and the proliferation ([5]; ConA stimulation) was “affected neither”. The IL-6 production [6] was “dramatically repressed”, the IL-18 production [6] was “dramatically repressed” and the IL-23 production [6] was “dramatically repressed”. For the same compound, the TNF-α production [6] was “dramatically repressed”, the “IL-17 expressed in a Th17 T cell (MFI)” value [7] was “decrease” and the “IL-17 in the culture media” value [7] was “decrease”.
